# Laboratory results from patent US20020010210A1, “PHARMACEUTICAL PREPARATION AND METHOD FOR TREATING CANCER” (priority 1997, published 2002).
# Counter-ions that a name gives are not always drawn. Numbered stars: 1 amine (or outer) side, 2 acyl side, 3 side chain; on linkers, the order of the positions; unused ones are H or OH. Bridge positions count the residues as written; N and C are the ends. Square brackets hold non-standard residues; d marks the D form. Peptide text beside a SMILES is read from it. I, II: the chains in the order shown. Actinocin(9to1) = Cc1c2oc3c(C)ccc(C(=O)[*:1])c3nc-2c(C(=O)[*:2])c(N)c1=O; NMeV = CN[C@H](C(=O)O)C(C)C; Sar = CNCC(=O)O
# Tests used:
# [1] = test system: spontaneous breast cancer rat cells (SST-2); assay: Lung metastasis of SST-2 in SHR rats, ascorbic acid derivative combined with known anticancer agent (Example 4); assay type: in vivo
# Experimental: 1×100,000 spontaneous breast cancer rat cells (SST-2) were subcutaneously implanted into the back of a rat (SHR rat) (5 rats per group) suffering from spontaneous hypertension. After 35 days, the rats were sacrificed, and the number of colonies formed were measured to examine the degree of metastasis of SST-2 to the lung.
# The ascorbic acid derivatives used were L-ascorbic acid-2-phosphate-6-palmitate, L-ascorbic acid-6-benzoate (reference compound) and magnesium L-ascorbic acid-2-phosphate.
# Each of the groups treated with an ascorbic acid derivative was subjected to a test of administering the ascorbic acid derivative alone and to a test of administering the ascorbic acid derivative in combination with a known anticancer agent as shown in Table 4. Furthermore, tests of administering the anticancer agents alone were conducted. Over the period of from 7 days prior to implantation to 34 days after the implantation, the ascorbic acid derivative was injected through a vein in the tail region at a dose of 1 mg/1 day/rat. Each of the known anticancer agents was perorally administered in a minimum dose by reference to the concentration for a single use case described in the publication, Tyakuhin Yoran (Medical Product Handbook), 4th Edition, pp. 1474-1509, Yakugyo Jiho-Sha (1989), and the number of colonies formed after metastasis was compared.
# [2] = test system: spontaneous breast cancer rat cells (SST-2); assay: as above; assay type: in vivo; remark: listed apart in the source
# [3] = ascorbic acid derivative 1 mg/1 day/rat tail vein, day -7 to day 34, known anticancer agent perorally in minimum dose, colonies after 35 days
Compound,"Cancer metastasis inhibitory effect of combination with L-Ascorbic Acid-2-Phosphate-6-Palmitate versus each agent alone [1, 3]","Cancer metastasis inhibitory effect of combination with L-Ascorbic Acid-2-Phosphate-6-Benzoate versus each agent alone [2, 3]","Cancer metastasis inhibitory effect of combination with L-Ascorbic Acid-6-Palmitate versus each agent alone [2, 3]","Cancer metastasis inhibitory effect of combination with L-Ascorbic Acid-2-Phosphate-6-Palmitate versus each agent alone ([1]; rat, in vivo)","Cancer metastasis inhibitory effect of combination with L-Ascorbic Acid-2-Phosphate-6-Benzoate versus each agent alone ([2]; rat, in vivo)","Cancer metastasis inhibitory effect of combination with L-Ascorbic Acid-6-Palmitate versus each agent alone ([2]; rat, in vivo)"
N=c1ccn2c(n1)O[C@H]1[C@H](O)[C@@H](CO)O[C@H]12 [ANCITABINE hydrochloride],+,+,−,,,
COC(COC(N)=O)C1=C(N2CC2)C(=O)C(C)=C(N2CC2)C1=O (stereo not drawn) [CARBOCON],+,+,−,,,
C[C@]12CC[C@@H]3c4ccc(OC(=O)N(CCCl)CCCl)cc4CC[C@H]3[C@@H]1CC[C@@H]2OP(=O)(O)O [Estracyt (R)],+,+,−,,,
CC/C(=C(/CC)c1ccc(OP(=O)(O)O)cc1)c1ccc(OP(=O)(O)O)cc1 [HONPAN],+,+,−,,,
O[C@@H]([C@H](O)[C@H](O)CBr)[C@H](O)CBr [MITOPURNITOL],+,+,−,,,
CS(=O)(=O)OCCCNCCCOS(C)(=O)=O.Cc1ccc(S(=O)(=O)O)cc1 [Protecton (R)],+,+,−,,,
S=P(N1CC1)(N1CC1)N1CC1 [TIOTEBA],+,+,−,,,
CC(=O)O[C@@H]1C(=O)O[C@H]2[C@@H]1OC(=O)[C@@H]2OC(C)=O [aceglatone],+,+,−,,,
CC[C@@]1(O)C[C@H](O[C@H]2C[C@H](N(C)C)[C@H](O[C@H]3C[C@H](O)[C@H](O[C@H]4CCC(=O)[C@H](C)O4)[C@H](C)O3)[C@H](C)O2)c2c(cc3c(c2O)C(=O)c2c(O)cccc2C3=O)[C@H]1C(=O)OC [aclarubicin hydrochloride],,,,+,+,−
"Cc1c2oc3c(C)ccc(C(=O)N[C@@H]4C(=O)N[C@H](C(C)C)C(=O)N5CCC[C@H]5C(=O)N(C)CC(=O)N(C)[C@@H](C(C)C)C(=O)O[C@@H]4C)c3nc-2c(C(=O)N[C@@H]2C(=O)N[C@H](C(C)C)C(=O)N3CCC[C@H]3C(=O)N(C)CC(=O)N(C)[C@@H](C(C)C)C(=O)O[C@@H]2C)c(N)c1=O [actinomycin (D)] (I: T[dV]P[Sar][NMeV] / II: T[dV]P[Sar][NMeV]; ester I:1-I:C, II:1-II:C; linker I:N-II:N via Actinocin(9to1))",,,,+,+,−
CS(=O)(=O)OCCCCOS(C)(=O)=O [bulsfan],,,,+,±,−
CCCCCCNC(=O)n1cc(F)c(=O)[nH]c1=O [carmofur],+,+,−,,,
CO[C@@H]1[C@H](O)C[C@@H](O[C@@H]2C[C@H](Oc3cc4cc5c(c(O)c4c(O)c3C)C(=O)[C@@H](O[C@H]3C[C@@H](O[C@H]4C[C@@H](O[C@H]6C[C@](C)(O)[C@@H](OC(C)=O)[C@H](C)O6)[C@H](O)[C@@H](C)O4)[C@H](O)[C@@H](C)O3)[C@H]([C@H](OC)C(=O)[C@@H](O)[C@@H](C)O)C5)O[C@H](C)[C@@H]2OC(C)=O)O[C@@H]1C [chromomycin A3],+,+,−,,,
N.N.[Cl][Pt][Cl] [cisplatin],+,+,−,,,
O=P1(N(CCCl)CCCl)NCCCO1 (stereo not drawn) [cyclophosphamido],+,+,−,,,
Nc1ccn([C@@H]2O[C@H](CO)[C@@H](O)[C@@H]2O)c(=O)n1 [cytarabine],+,+,−,,,
COc1cccc2c1C(=O)c1c(O)c3c(c(O)c1C2=O)C[C@@](O)(C(C)=O)C[C@@H]3O[C@H]1C[C@H](N)[C@H](O)[C@H](C)O1 [daunorubicin hydrochloride],,,,+,+,−
CN(C)/N=N/c1[nH]cnc1C(N)=O [decarbazine],+,+,−,,,
COc1cccc2c1C(=O)c1c(O)c3c(c(O)c1C2=O)C[C@@](O)(C(=O)CO)C[C@@H]3O[C@H]1C[C@H](N)[C@H](O)[C@H](C)O1 [doxorubicin hydrochloride],+,+,−,,,
CCCCCCCCCCCCCCCCCCCCCC(=O)Nc1ccn([C@@H]2O[C@H](CO)[C@@H](O)[C@@H]2O)c(=O)n1 [enocitabine],+,±,−,,,
